Measurements as given in US6399629B1, “Efflux pump inhibitors” (priority 1998, dated 2002).

Tested on: Pseudomonas aeruginosa PAM1001
Assay: checkerboard assay (broth microdilution): levofloxacin MIC in presence of efflux pump inhibitor
Type: cell-based
Method in brief: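 Checkerboard broth microdilution in Mueller Hinton Broth against P. aeruginosa PAM1001 (5×10^5 CFU/mL, early-log inoculum), levofloxacin and efflux pump inhibitor (up to 40 μg/mL) diluted along crossing axes. Plates incubated 20 h at 35° C; growth read at 650 nm and visually. Potentiation scored as reduced levofloxacin MIC.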

| Compound | Levofloxacin MIC Against P. aerugiuosa PAM1001 in Presence of Efflux Pump Inhibitor (EPI), Minimum Inhibitory Concentration (EPI Conc. 0 μg/mL) [µg/mL] | Levofloxacin MIC Against P. aerugiuosa PAM1001 in Presence of Efflux Pump Inhibitor (EPI), Minimum Inhibitory Concentration (EPI Conc. 0.625 μg/mL) [µg/mL] | Levofloxacin MIC Against P. aerugiuosa PAM1001 in Presence of Efflux Pump Inhibitor (EPI), Minimum Inhibitory Concentration (EPI Conc. 1.25 μg/mL) [µg/mL] | Levofloxacin MIC Against P. aerugiuosa PAM1001 in Presence of Efflux Pump Inhibitor (EPI), Minimum Inhibitory Concentration (EPI Conc. 2.5 μg/mL) [µg/mL] | Levofloxacin MIC Against P. aerugiuosa PAM1001 in Presence of Efflux Pump Inhibitor (EPI), Minimum Inhibitory Concentration (EPI Conc. 5 μg/ mL) [µg/mL] | Levofloxacin MIC Against P. aerugiuosa PAM1001 in Presence of Efflux Pump Inhibitor (EPI), Minimum Inhibitory Concentration (EPI Conc. 10 μg/mL) [µg/mL] | Levofloxacin MIC Against P. aerugiuosa PAM1001 in Presence of Efflux Pump Inhibitor (EPI), Minimum Inhibitory Concentration (EPI Conc. 20 μg/mL) [µg/mL] | Levofloxacin MIC Against P. aerugiuosa PAM1001 in Presence of Efflux Pump Inhibitor (EPI), Minimum Inhibitory Concentration (EPI Conc. 40 μg/mL) [µg/mL] |
| --- | --- | --- | --- | --- | --- | --- | --- | --- |
| Cc1ccc2ncc(C(=O)NC[C@@H](CCc3ccccc3)NC(=O)[C@H]3C[C@H](CN)CN3)cc2c1 [Compound M63, (2R,4R)-4-(Aminomethyl)-N-[(1R)-3-phenyl-1-[(6-methyl-3-quinolylcarboxamido)methyl]propyl]-2-pyrrolidinecaroxamide] | 4 | 4 | 4 | 4 | 2 | 1 | 0.008 | 0.015 |
| (2S,4R)-4-(2-Aminoacetamideo)-N-(2-phenylethyl)-N-(3-quinolylcarbamoyl)ethyl]-2-pyrrolidinecarboxamide [Compound M43] | 4 | 4 | 4 | 2 | 0.25 | 0.125 | 0.125 | 0.06 |
| Cc1cc2nc(C(O)[C@@H](CCc3ccccc3)NC(=O)[C@@H]3C[C@@H](NC(=O)CN)CN3)oc2cc1C (stereo partly drawn) [Compound M67] | 4 | 4 | 4 | 4 | 4 | 0.5 | 0.03 |  |
| COc1cc(C)c2ncc(NC(=O)[C@@H](CC(C)C)NC(=O)[C@@H]3C[C@@H](NC(=O)CN)CN3)cc2c1 [Compound M10, (2S,4R)-4-(2-Aminoacetamido)-N-[(1R)-3-3-methyl-1-(6-methoxy-8-methyl-3-quinolylcarbamoyl)butyl]-2-pyrrolidinecarboxamide] | 4 | 4 | 4 | 4 | 4 | 4 | 1 | 0.06 |
| NC[C@@H]1CN[C@@H](C(=O)N[C@H](Cc2ccc(F)cc2)C(=O)Nc2cnc3ccccc3c2)C1 [Compound M31, (2R,4R)-4-(Aminomethyl)-N-[(1R)-2-(4-fluoropheyl)-1-(3-quinolylcarbamoyl)ethyl]-2-pyrrolidinecarboxamide] | 4 | 4 | 4 | 4 | 1 | 0.25 | 0.03 | 0.03 |
| NCC(=O)N[C@@H]1CN[C@@H](C(=O)NC(Cc2ccccc2)C(=O)Nc2cnc3ccccc3c2)C1 (stereo partly drawn) [Compound M41, (2R,4S0-4-(2-Aminoacetamideo)-N-(2-phenylethyl)-N-(3-quinolylcarbamoyl)ethyl]-2-pyrrolidinecarboxamide] | 4 | 4 | 2 | 2 | 0.25 | 0.008 | 0.008 | 0.008 |
| NC[C@@H]1CN[C@@H](C(=O)N[C@H](CCc2ccccc2)C(=O)Nc2cnc3ccc(F)cc3c2)C1 [Compound M35, (2R,4R)-4-(Aminomethyl)-N-[(1R)-3-pheyl-1-(6-fluoro-3-quinolylcarbamoyl)propyl]-2-pyrrolidinecarboxamide] | 4 | 4 | 4 | 4 | 2 | 0.5 | 0.03 | 0.03 |
| NC[C@@H]1CN[C@@H](COc2ccc3ccccc3n2)C1 [Compound M71, (2R,4R)-4-(Aminomethyl)-2 (2-quiolyloxymethyl)pyrrolidne] | 4 | 4 | 4 | 4 | 4 | 4 | 2 | 0.5 |
